PubChem BioAssay AID192 (DTP/NCI, 2004)
Values joined by “and” are separate entries in the source; they are usually repeats but may differ in a detail not shown here. Identical values can stand only once. Inconclusive results and toxic doses are left out.

Test system: BDF1 mice, B16 melanoma ip, median survival T/C
Assay: NCI In Vivo Anticancer Drug Screen. Data for tumor model B16 Melanoma (intraperitoneal) in B6D2F1 (BDF1) mice
Settings: endpoint: median survival time, higher = longer survival
Procedure: The antitumor activity of compounds was measured in mice bearing transplantable tumors. Survival or tumor size were measured and the results are expressed as the measurement made in the treated group (T) divided by the measurement made in the vehicle treated control group (C). The tumor model used in this assay is B16 Melanoma (intraperitoneal) in B6D2F1 (BDF1) mice

[1] = dose: 100.0 mg/kg/injection, schedule: Q01DX009 (ip), vehicle: saline with Tween-80
[2] = dose: 200.0 mg/kg/injection, schedule: Q01DX009 (ip), vehicle: saline with Tween-80
[3] = dose: 400.0 mg/kg/injection, schedule: Q01DX009 (ip), vehicle: saline with Tween-80
[4] = dose: 12.5 mg/kg/injection, schedule: Q01DX009 (ip), vehicle: saline with Tween-80
[5] = dose: 25.0 mg/kg/injection, schedule: Q01DX009 (ip), vehicle: saline with Tween-80
[6] = dose: 50.0 mg/kg/injection, schedule: Q01DX009 (ip), vehicle: saline with Tween-80
[7] = dose: 12.5 mg/kg/injection, schedule: Q01DX009 (ip), vehicle: Klucel (hydroxypropylcellulose) (HPC)
[8] = dose: 25.0 mg/kg/injection, schedule: Q01DX009 (ip), vehicle: Klucel (hydroxypropylcellulose) (HPC)
[9] = dose: 50.0 mg/kg/injection, schedule: Q01DX009 (ip), vehicle: Klucel (hydroxypropylcellulose) (HPC)

`Nc1nc(N)nc(N)n1` was tested, and the T/C (dose: 100.0 mg/kg/injection, schedule: Q01DX009 (ip), vehicle: Klucel (hydroxypropylcellulose) (HPC)) was 100 % of control, the T/C [1] was 102 % of control and the T/C (dose: 200.0 mg/kg/injection, schedule: Q01DX009 (ip), vehicle: Klucel (hydroxypropylcellulose) (HPC)) was 100 % of control. For the same compound, the T/C [2] was 102 % of control, the T/C (dose: 400.0 mg/kg/injection, schedule: Q01DX009 (ip), vehicle: Klucel (hydroxypropylcellulose) (HPC)) was 105 % of control and the T/C [3] was 87 % of control. The T/C (dose: 800.0 mg/kg/injection, schedule: Q01DX009 (ip), vehicle: saline with Tween-80) was 90 % of control.
In the case of `Cc1ncc([N+](=O)[O-])n1CCSC(N)=O`, the T/C [4] is reported as 97 % of control and 99 % of control, the T/C [5] is reported as 95 % of control and 102 % of control and the T/C [6] is reported as 101 % of control. The T/C [1] was 97 % of control and 101 % of control, the T/C [2] was 91 % of control and 96 % of control and the T/C [3] was 92 % of control.
With `O=C1C(NCCO)=C(N2CC2)C(=O)C(NCCO)=C1N1CC1` the T/C (dose: 0.19 mg/kg/injection, schedule: Q01DX009 (ip), vehicle: saline) was 165 % of control and 202 % of control, the T/C (dose: 0.37 mg/kg/injection, schedule: Q01DX009 (ip), vehicle: saline) was 161 % of control and the T/C (dose: 0.38 mg/kg/injection, schedule: Q01DX009 (ip), vehicle: saline) was 191 % of control and 236 % of control. The T/C (dose: 0.75 mg/kg/injection, schedule: Q01DX009 (ip), vehicle: saline) was 221 % of control.
`C[CH2][Sn]([F])([CH2]C)[CH2]C` was tested, and the T/C (dose: 0.37 mg/kg/injection, schedule: Q01DX009 (ip), vehicle: saline with Tween-80) was 104 % of control, the T/C (dose: 0.75 mg/kg/injection, schedule: Q01DX009 (ip), vehicle: saline with Tween-80) was 109 % of control and the T/C (dose: 1.5 mg/kg/injection, schedule: Q01DX009 (ip), vehicle: saline with Tween-80) was 102 % of control. For the same compound, the T/C (dose: 3.0 mg/kg/injection, schedule: Q01DX009 (ip), vehicle: saline with Tween-80) was 94 % of control.
With `O=[N+]([O-])c1cc(F)cc([N+](=O)[O-])c1O` the T/C [7] was 124 % of control, the T/C [8] was 103 % of control and the T/C [9] was 96 % of control.
With `O=NN(CCCl)C(=O)NC1c2cc(Cl)ccc2-c2c(Cl)cc(Cl)cc21` (stereo not given) the T/C [4] was 169 % of control, the T/C [5] was 195 % of control and the T/C [6] was 181 % of control and 186 % of control. For the same compound, the T/C [1] was 104 % of control and 231 % of control and the T/C [2] was 175 % of control.
`COc1ccc2c(ccc3oc([N+](=O)[O-])cc32)c1` was tested, and the T/C [7] was 115 % of control, the T/C [8] was 118 % of control and the T/C [9] was 123 % of control.
With `COc1cc2ccc3cnccc3c2cc1OC` the T/C (dose: 25.0 mg/kg/injection, schedule: Q01DX009 (ip), vehicle: water) was 99 % of control, the T/C (dose: 50.0 mg/kg/injection, schedule: Q01DX009 (ip), vehicle: water) was 91 % of control and the T/C (dose: 100.0 mg/kg/injection, schedule: Q01DX009 (ip), vehicle: water) was 98 % of control. For the same compound, the T/C (dose: 200.0 mg/kg/injection, schedule: Q01DX009 (ip), vehicle: water) was 88 % of control.
With `Nc1cc(S(N)(=O)=O)ccc1SSc1ccc(S(N)(=O)=O)cc1N` the T/C [1] was 95 % of control and the T/C [2] was 93 % of control.
`Nc1c([N+](=O)[O-])ccc2ccccc12` was tested, and the T/C (dose: 100.0 mg/kg/injection, schedule: Q04DX003 (ip), vehicle: saline with Tween-80) was 108 % of control, the T/C (dose: 200.0 mg/kg/injection, schedule: Q04DX003 (ip), vehicle: saline with Tween-80) was 91 % of control and the T/C (dose: 400.0 mg/kg/injection, schedule: Q04DX003 (ip), vehicle: saline with Tween-80) was 100 % of control.
With `CN1CCC(CN2c3ccccc3Sc3ccccc32)C1` (stereo not given) the T/C (dose: 3.12 mg/kg/injection, schedule: Q01DX009 (ip), vehicle: saline) was 105 % of control, the T/C (dose: 6.25 mg/kg/injection, schedule: Q01DX009 (ip), vehicle: saline) was 89 % of control and the T/C (dose: 12.5 mg/kg/injection, schedule: Q01DX009 (ip), vehicle: saline) was 94 % of control. For the same compound, the T/C (dose: 25.0 mg/kg/injection, schedule: Q01DX009 (ip), vehicle: saline) was 107 % of control and the T/C (dose: 50.0 mg/kg/injection, schedule: Q01DX009 (ip), vehicle: saline) was 92 % of control.
For `CCCCC1CCCCCCc2[nH]c(/C=C3\N=C(c4ccc[nH]4)C=C3OC)cc21` (stereo not given), the T/C (dose: 62.0 micrograms/kg/injection, schedule: Q01DX009 (ip), vehicle: saline with Tween-80) was 106 % of control, the T/C (dose: 125.0 micrograms/kg/injection, schedule: Q01DX009 (ip), vehicle: saline with Tween-80) was 96 % of control and the T/C (dose: 250.0 micrograms/kg/injection, schedule: Q01DX009 (ip), vehicle: saline with Tween-80) was 92 % of control. For the same compound, the T/C (dose: 500.0 micrograms/kg/injection, schedule: Q01DX009 (ip), vehicle: saline with Tween-80) was 103 % of control.
